According to patent US8394971B2, “Indole derivatives as selective androgen receptor modulators (SARMS)” (Janssen Pharmaceutica N.V., priority 2004, dated 2013):
Values joined by “and” are separate entries in the source; they are usually repeats but may differ in a detail not shown here. Identical values can stand only once.

Experiments:
[1] = target: T1, androgen receptor (adenovirus AdEasy+rAR in COS-7 cells) (Rattus norvegicus, UniProt P15207); assay: COS-7 Whole-Cell Androgen Receptor Binding Assay, Adenovirus Transduction; details: COS binding; 3000 nM unless otherwise noted
T1 construct: expressed in transfected cells
T1 sequence (P15207 1-902): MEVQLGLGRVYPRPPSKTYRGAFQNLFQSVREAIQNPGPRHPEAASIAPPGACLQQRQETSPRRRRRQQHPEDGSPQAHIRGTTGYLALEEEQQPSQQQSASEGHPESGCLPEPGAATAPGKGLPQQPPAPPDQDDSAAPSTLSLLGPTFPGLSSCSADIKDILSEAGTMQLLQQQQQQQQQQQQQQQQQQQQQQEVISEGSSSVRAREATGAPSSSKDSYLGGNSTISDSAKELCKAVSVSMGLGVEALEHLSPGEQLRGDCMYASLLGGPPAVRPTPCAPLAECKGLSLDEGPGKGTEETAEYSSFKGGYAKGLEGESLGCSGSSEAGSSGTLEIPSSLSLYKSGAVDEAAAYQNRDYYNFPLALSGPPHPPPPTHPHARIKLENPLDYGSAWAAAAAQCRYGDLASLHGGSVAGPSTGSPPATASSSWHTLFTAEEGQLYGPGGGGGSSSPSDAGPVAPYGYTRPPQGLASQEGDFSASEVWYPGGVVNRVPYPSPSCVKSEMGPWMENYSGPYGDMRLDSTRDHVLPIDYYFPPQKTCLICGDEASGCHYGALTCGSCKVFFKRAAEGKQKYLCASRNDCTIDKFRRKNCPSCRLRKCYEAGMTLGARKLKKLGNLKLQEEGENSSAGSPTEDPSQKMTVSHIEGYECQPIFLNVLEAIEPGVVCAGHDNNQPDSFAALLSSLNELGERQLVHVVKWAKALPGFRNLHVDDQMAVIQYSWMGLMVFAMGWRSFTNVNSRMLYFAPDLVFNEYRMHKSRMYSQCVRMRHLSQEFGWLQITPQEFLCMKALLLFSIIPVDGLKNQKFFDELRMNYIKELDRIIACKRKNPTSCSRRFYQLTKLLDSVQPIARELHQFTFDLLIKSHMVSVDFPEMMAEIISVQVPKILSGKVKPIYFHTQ

[2] = target: T2, androgen receptor (adenovirus AdEasy+rAR in L929 cells) (Rattus norvegicus, UniProt P15207); assay: L929 Androgen Receptor Functional Assay, Adenovirus Transduction; format: cell-based; details: for inhibition at 3 µM: L929, L929 antagonist testing with R1881; for % Activity: L929 agonist testing
T2 construct: expressed in transfected cells
T2 sequence (P15207 1-902): T1 sequence (P15207 1-902)
Outline: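 Luminescent reporter readout after 48 h at 37 °C: rat AR delivered by adenovirus (AdEasy+rAR, moi 1:500) into L929 cells grown without phenol red in charcoal-treated serum. Antagonist wells also received R1881 (2.5× dilution at 2.5 nM).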

[3] = test system: testosterone-enhanced ventral prostate and seminal vesicle weights in castrated male Sprague Dawley rats; assay: Ventral Prostate and Seminal Vesicle Weight In Vivo Assay; parameters: species or system rat; details: immature castrated rats; once daily for five days, usually orally at 40 mg/kg, with testosterone propionate 2 mg/kg s.c.
Outline: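 Immature (~50 g) castrated Sprague Dawley rats dosed once daily for five days with compound (usually oral, 40 mg/kg, cyclodextrin or methylcellulose vehicle) plus testosterone propionate 2 mg/kg s.c. Wet ventral prostate and seminal vesicle weights taken on day six; activity judged by prostate weight or body-weight-adjusted % inhibition.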

SMILES | % Inhibition [1] | inhibition at 3 µM ([2]; 3000 nM) | % Activity ([2]; 3000 nM) | active / inactive (inhibition of testosterone-enhanced prostate weight) [3] | inhibition at 3 µM [1] | % Activity ([2]; @ 8000 nM) | % Activity ([2]; 3000 nM, 3 µM)
CCS(=O)(=O)CC(C)(O)c1[nH]c2cc(C(F)(F)F)c(C#N)cc2c1C (single isomer, unassigned) [Compound #251, 2-(2-Ethanesulfonyl-1-hydroxy-1-methyl-ethyl)-3-methyl-6-trifluoromethyl-1H-indole-5-carbonitrile] | 85% | 90% | −1% | active |  |  | 
CC(O)(CSCC(F)(F)F)c1cc2cc(Cl)c(C(F)(F)F)cc2[nH]1 (stereo not shown) [compound 190] |  |  | 1% | active | 100% |  | 
CCS(=O)(=O)CC(C)(O)c1cc2cc([N+](=O)[O-])c(C(F)(F)F)cc2[nH]1 (stereo not shown) [compound 143] |  |  | 0% | active | 68% |  | 
CCSCC(C)(O)c1cc2cc(C#N)c(C(F)(F)F)cc2n1C (stereo not shown) [compound 236] |  |  | 2% | active | 83% |  | 
CC(O)(CSc1ccc(N)cc1)c1cc2cc(Cl)c(C(F)(F)F)cc2[nH]1 (stereo not shown) [compound 104] |  |  | 9% | inactive | 94% |  | 
CCSCC(C)(O)c1cc2cc(C#N)c(C(F)(F)F)cc2[nH]1 (stereo not shown) [compound 209] |  |  |  | active | 61% | −3 @ 8000 nM % | 
CC(O)(CSCC(F)(F)F)c1[nH]c2cc(C(F)(F)F)c([N+](=O)[O-])cc2c1I (stereo not shown) [compound 213] |  |  |  | active | 71% | −1 @ 8000 nM % | 
CCSCC(C)(O)c1cc2cc([N+](=O)[O-])c(C(F)(F)F)cc2[nH]1 (racemic) [compound 142] | 90% | 78% |  | active |  |  | 0%
CCSCC(C)(OC)c1cc2cc(C#N)c(C(F)(F)F)cc2n1C (stereo not shown) [compound 235] |  |  | 3% | inactive | 78% |  | 
CCSCC(O)c1cc2cc([N+](=O)[O-])c(C(F)(F)F)cc2[nH]1 (stereo not shown) [compound 158] | 56% |  |  | inactive | 62% |  | 3% and 2%
CN(C)c1ccccc1SCC(C)(O)c1cc2cc(Cl)c(C(F)(F)F)cc2[nH]1 (stereo not shown) [compound 127] | 41% and 74% |  | −5% | inactive |  |  | 
CCC(O)(CSCC(F)(F)F)c1cc2cc(Cl)c(C(F)(F)F)cc2[nH]1 (stereo not shown) [compound 192] |  |  | 8% | active | 86% |  | 
CCSCC(C)(O)c1cc2cc([N+](=O)[O-])c(C(F)(F)F)cc2n1S(C)(=O)=O (stereo not shown) [compound 141] |  |  | 0% | inactive | 42% |  | 
CSCC(C)(O)c1cc2cc(Cl)c(C(F)(F)F)cc2[nH]1 (stereo not shown) [compound 135] |  |  | 0% | inactive | 98% |  | 
CC(O)(CSCC(F)(F)F)c1cc2cc([N+](=O)[O-])c(C(F)(F)F)cc2[nH]1 (stereo not shown) [compound 171] | 94% |  |  | active | 92% | −1 @ 8000 nM % | 11%
CCSCC(C)(O)c1cc2cc(F)c(C(F)(F)F)cc2[nH]1 (stereo not shown) [compound 159] |  |  | 2% | active | 90% |  | 
CCSCC(C)(O)c1cc2cc(C#N)c(C(F)(F)F)cc2[nH]1 (single isomer, unassigned) [Compound #217, 2-(2-Ethylsulfanyl-1-hydroxy-1-methyl-ethyl)-6-trifluoromethyl-1H-indole-5-carbonitrile] | 38% and 69% | 87% | 5% | active |  | 0 @ 8000 nM % | 
CSCC(C)(O)c1cc2cc([N+](=O)[O-])c(C(F)(F)F)cc2[nH]1 (stereo not shown) [compound 139] | 97% |  |  | active | 94% |  | 0% and 1%
CC(O)(CSCC(F)(F)F)c1cc2cc([N+](=O)[O-])c(C(F)(F)F)cc2[nH]1 (single isomer, unassigned) [compound 202] | 50% |  |  | active |  |  | 1%
CCS(=O)(=O)C[C@](C)(O)c1cc2cc([N+](=O)[O-])c(C(F)(F)F)cc2[nH]1 [Compound #156, 1-Ethanesulfonyl-2-(5-nitro-6-trifluoromethyl-1H-indol-2-yl)-propan-2-ol] | 52% |  | 2% | inactive | 42% |  | 
C[S+]([O-])CCC(C)(O)c1cc2cc([N+](=O)[O-])c(C(F)(F)F)cc2[nH]1 (mixture of isomers) [compound 50] | 7% |  | 2% | inactive |  |  | 
CC(O)(CS(C)(=O)=O)c1cc2cc([N+](=O)[O-])c(C(F)(F)F)cc2[nH]1 (stereo not shown) [compound 140] | 51.5% |  | 0% | active |  |  | 
CCSCC(C)(O)c1[nH]c2cc(C(F)(F)F)c(C#N)cc2c1C (single isomer, unassigned) [Compound #234, 2-(2-Ethylsulfanyl-1-hydroxy-1-methyl-ethyl)-3-methyl-6-trifluoromethyl-1H-indole-5-carbonitrile] | 71% |  |  | inactive |  |  | −1%
CC(O)(CSCc1ccccc1)c1cc2cc([N+](=O)[O-])c(C(F)(F)F)cc2[nH]1 (stereo not shown) [compound 160] |  |  | 1% | inactive | 84% |  | 
CCSCC(C)(O)c1cc2cc([N+](=O)[O-])c(C(F)(F)F)cc2n1C (single isomer, unassigned) [compound 231] | 78% |  |  | active | 73% |  | 0% and −1%
